# The source made the active and inactive calls. No cut-off for these calls is given here.
# Tests used:
# Estrogen receptor [1] = target: T1, Estrogen receptor (Homo sapiens, UniProt P03372); assay: Induction of estrogen receptor degradation in human MCF7 cells; assay type: cell-based
# T1 sequence (P03372 whole entry): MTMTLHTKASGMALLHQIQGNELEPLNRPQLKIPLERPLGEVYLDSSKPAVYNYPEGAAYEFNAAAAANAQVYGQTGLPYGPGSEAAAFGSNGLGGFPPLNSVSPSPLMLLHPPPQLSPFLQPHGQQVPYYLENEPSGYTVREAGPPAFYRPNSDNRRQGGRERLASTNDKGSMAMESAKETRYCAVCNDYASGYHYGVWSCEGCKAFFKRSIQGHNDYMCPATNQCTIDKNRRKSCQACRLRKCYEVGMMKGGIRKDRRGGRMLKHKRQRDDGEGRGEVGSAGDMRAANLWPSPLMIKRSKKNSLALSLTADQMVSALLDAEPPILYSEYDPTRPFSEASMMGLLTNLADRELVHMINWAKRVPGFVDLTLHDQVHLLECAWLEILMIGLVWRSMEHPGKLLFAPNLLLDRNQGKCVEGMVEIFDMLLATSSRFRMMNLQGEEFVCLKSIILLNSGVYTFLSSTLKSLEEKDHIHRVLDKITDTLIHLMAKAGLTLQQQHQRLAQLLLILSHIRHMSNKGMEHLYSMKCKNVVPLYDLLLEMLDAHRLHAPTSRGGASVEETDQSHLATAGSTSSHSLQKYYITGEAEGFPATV
# MCF7 [2] = assay: Antiproliferative activity against human MCF7 cells assessed as cell growth inhibition; assay type: functional, cell-based
# Estrogen receptor [3] = target: T1, Estrogen receptor; assay: Binding affinity to estrogen receptor (unknown origin)
# MCF7 [4] = assay: Antitumor activity against human MCF7 cells expressing ER xenografted in BALB/c mouse assessed as tumor growth inhibition at 20 mg/kg, po qd administered for 21 days and measured on day 19 relative to control; assay type: functional; conditions: 456 h, time 19 day, read-out: TGI
# [5] = Volume of distribution in CD-1 mouse; assay type: ADME; conditions: in vivo
# MCF7 [6] = assay: Antitumor activity against human MCF7 cells expressing ER xenografted in BALB/c mouse assessed as tumor growth suppression at 20 mg/kg, po qd administered for 21 days; assay type: functional, organism-based; conditions: time 21.0 day
# [7] = Clearance in CD-1 mouse; assay type: ADME; conditions: in vivo
# [8] = AUC (0 to last) in CD-1 mouse at 2.5 mg/kg, po; assay type: ADME, organism-based; parameters: time 0 - last, route oral, dose 2.5 mg/kg; conditions: in vivo
# [9] = Oral bioavailability in CD-1 mouse; assay type: ADME, organism-based; conditions: in vivo
# [10] = target: Voltage-gated inwardly rectifying potassium channel KCNH2 (Homo sapiens, UniProt Q12809); assay: Inhibition of human ERG by automatic Q-patch assay
# Voltage-gated inwardly rectifying potassium channel KCNH2, sequence (Q12809 whole entry): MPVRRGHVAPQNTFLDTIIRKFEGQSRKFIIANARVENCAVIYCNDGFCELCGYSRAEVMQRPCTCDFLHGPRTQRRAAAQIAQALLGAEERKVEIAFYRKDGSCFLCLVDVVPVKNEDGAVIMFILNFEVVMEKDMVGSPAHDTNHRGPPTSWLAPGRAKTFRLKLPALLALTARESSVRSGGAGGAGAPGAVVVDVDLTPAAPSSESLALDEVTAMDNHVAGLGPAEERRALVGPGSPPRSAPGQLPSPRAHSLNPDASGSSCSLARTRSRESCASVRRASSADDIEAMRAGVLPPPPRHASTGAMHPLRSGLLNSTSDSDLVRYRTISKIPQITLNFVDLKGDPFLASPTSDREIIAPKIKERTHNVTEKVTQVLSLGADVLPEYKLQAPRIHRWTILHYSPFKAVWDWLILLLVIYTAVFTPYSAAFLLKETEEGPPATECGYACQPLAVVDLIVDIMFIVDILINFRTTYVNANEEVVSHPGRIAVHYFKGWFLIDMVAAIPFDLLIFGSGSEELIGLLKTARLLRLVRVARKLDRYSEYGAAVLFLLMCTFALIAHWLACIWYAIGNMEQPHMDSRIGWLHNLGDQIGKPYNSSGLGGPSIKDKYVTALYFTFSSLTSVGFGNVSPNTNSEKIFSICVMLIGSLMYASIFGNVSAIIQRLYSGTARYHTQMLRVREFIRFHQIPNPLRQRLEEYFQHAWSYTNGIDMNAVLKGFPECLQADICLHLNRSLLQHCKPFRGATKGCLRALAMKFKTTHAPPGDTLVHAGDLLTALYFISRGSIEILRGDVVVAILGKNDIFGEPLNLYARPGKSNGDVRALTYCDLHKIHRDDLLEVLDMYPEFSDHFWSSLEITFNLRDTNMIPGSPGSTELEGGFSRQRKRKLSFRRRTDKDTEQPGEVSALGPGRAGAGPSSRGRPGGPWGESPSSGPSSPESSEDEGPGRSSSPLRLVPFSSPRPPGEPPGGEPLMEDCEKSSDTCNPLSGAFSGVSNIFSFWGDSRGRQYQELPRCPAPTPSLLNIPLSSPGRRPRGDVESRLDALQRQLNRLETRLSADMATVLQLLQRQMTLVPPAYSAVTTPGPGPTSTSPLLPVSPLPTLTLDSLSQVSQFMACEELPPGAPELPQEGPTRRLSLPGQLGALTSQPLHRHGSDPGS
smiles,measurement,setting,value
CC/C(=C(/c1ccc(/C=C/C(=O)O)cc1)c1cc2ccccc2[nH]1)c1ccc(Cl)c(C)c1,IC50,Estrogen receptor [1],1390 nM
same,IC50,MCF7 [2],840 nM
CC/C(=C(/c1ccc(/C=C/C(=O)O)cc1)c1cc2ccccc2[nH]1)c1ccc(C#N)cc1Cl,IC50,Estrogen receptor [1],31 nM
same,IC50,MCF7 [2],49 nM
same,IC50,Estrogen receptor [3],0.17 nM
CC/C(=C(/c1ccc(/C=C/C(=O)O)cc1)c1cc2ccccc2[nH]1)c1cccc(C)c1,IC50,Estrogen receptor [1],69 nM
same,IC50,MCF7 [2],140 nM
same,IC50,Estrogen receptor [3],1.46 nM
CC/C(=C(/c1ccc(/C=C/C(=O)O)cc1)c1cc2ccccc2[nH]1)c1ccc(OC)cc1,IC50,Estrogen receptor [1],30 nM
same,IC50,MCF7 [2],61 nM
same,IC50,Estrogen receptor [3],0.22 nM
CC/C(=C(/c1ccc(/C=C/C(=O)O)cc1)c1cc2ccccc2[nH]1)c1ccc(Cl)cc1Cl,IC50,Estrogen receptor [1],9 nM
same,IC50,MCF7 [2],11 nM
same,IC50,Estrogen receptor [3],1.52 nM
CC/C(=C(/c1ccc(/C=C/C(=O)O)cc1)c1cc2ccccc2[nH]1)c1c(C)cccc1Cl,IC50,Estrogen receptor [1],42 nM
same,IC50,MCF7 [2],30 nM
CC/C(=C(/c1ccc(/C=C/C(=O)O)cc1)c1cc2ccccc2[nH]1)c1ccccc1C,IC50,Estrogen receptor [1],9 nM
same,IC50,MCF7 [2],33 nM
same,IC50,Estrogen receptor [3],0.17 nM
CC/C(=C(/c1ccc(/C=C/C(=O)O)cc1)c1cc2ccccc2[nH]1)c1ccccc1C#N,IC50,Estrogen receptor [1],9 nM
same,IC50,MCF7 [2],9 nM
same,IC50,Estrogen receptor [3],0.24 nM
C[C@@H]1Cc2c([nH]c3ccccc23)[C@@H](c2c(F)cc(/C=C/C(=O)O)cc2F)N1CC(C)(C)F [AZD-9496],IC50,MCF7 [2],0.49 nM
CC/C(=C(/c1ccc(/C=C/C(=O)O)cc1)c1cc2ccccc2[nH]1)c1ccccc1Cl,IC50,Estrogen receptor [1],29 nM
same,IC50,MCF7 [2],42 nM
same,IC50,Estrogen receptor [3],0.44 nM
CC/C(=C(/c1ccc(/C=C/C(=O)O)cc1)c1cc2ccccc2[nH]1)c1ccc(Cl)cc1C#N,IC50,Estrogen receptor [1],18 nM
same,IC50,MCF7 [2],14 nM
same,IC50,Estrogen receptor [3],0.16 nM
CC/C(=C(/c1ccc(/C=C/C(=O)O)cc1)c1cc2ccccc2[nH]1)c1cccc(Cl)c1Cl,IC50,Estrogen receptor [1],495 nM
same,IC50,MCF7 [2],898 nM
same,IC50,Estrogen receptor [3],3.18 nM
CC/C(=C(/c1ccc(/C=C/C(=O)O)cc1)c1cc2ccccc2[nH]1)c1cccc(C(F)(F)F)c1,IC50,Estrogen receptor [1],131 nM
same,IC50,MCF7 [2],325 nM
same,IC50,Estrogen receptor [3],1.75 nM
CC/C(=C(/c1ccc(/C=C/C(=O)O)cc1)c1cc2ccccc2[nH]1)c1ccc(Cl)cc1,IC50,Estrogen receptor [1],271 nM
same,IC50,MCF7 [2],343 nM
same,IC50,Estrogen receptor [3],1.74 nM
CC/C(=C(/c1ccc(/C=C/C(=O)O)cc1)c1cc2ccccc2[nH]1)c1ccccc1C(F)(F)F,inhibition in vivo at 20 mg/kg,MCF7 [4],112%
same,Vd,[5],1.12 L/kg
same,inhibition,MCF7 [6],Active
same,clearance,[7],5.54 mL/min/kg
same,IC50,Estrogen receptor [1],4 nM
same,IC50,MCF7 [2],8 nM
same,AUC(0-t),[8],4.21 µM·h
same,bioavailability,[9],25.7%
same,inhibition (INH),[10]; human,Active
same,IC50,Estrogen receptor [3],0.87 nM
CC/C(=C(/c1ccc(/C=C/C(=O)O)cc1)c1cc2ccccc2[nH]1)c1ccc(C#N)cc1,IC50,Estrogen receptor [1],723 nM
same,IC50,MCF7 [2],278 nM
CC/C(=C(/c1ccc(/C=C/C(=O)O)cc1)c1cc2ccccc2[nH]1)c1ccccc1,IC50,Estrogen receptor [1],66.6 nM
same,IC50,MCF7 [2],108 nM
same,IC50,Estrogen receptor [3],0.28 nM
CC/C(=C(/c1ccc(/C=C/C(=O)O)cc1)c1cc2ccccc2[nH]1)c1cc(Cl)ccc1Cl,IC50,Estrogen receptor [1],25 nM
same,IC50,MCF7 [2],71 nM
same,IC50,Estrogen receptor [3],1.4 nM
CC/C(=C(/c1ccc(/C=C/C(=O)O)cc1)c1cc2ccccc2[nH]1)c1cccc(OC(F)(F)F)c1,IC50,Estrogen receptor [1],68 nM
same,IC50,MCF7 [2],282 nM
same,IC50,Estrogen receptor [3],4.71 nM
CC/C(=C(/c1ccc(/C=C/C(=O)O)cc1)c1cc2ccccc2[nH]1)c1ccc(C(F)(F)F)cc1,IC50,Estrogen receptor [1],163 nM
same,IC50,MCF7 [2],139 nM
CC/C(=C(/c1ccc(/C=C/C(=O)O)cc1)c1cc2ccccc2[nH]1)c1ccc(F)cc1Cl,IC50,Estrogen receptor [1],21 nM
same,IC50,MCF7 [2],39 nM
same,IC50,Estrogen receptor [3],1.6 nM
CC/C(=C(/c1ccc(/C=C/C(=O)O)cc1)c1cc2ccccc2[nH]1)c1ccc(C(F)(F)F)cc1Cl,IC50,Estrogen receptor [1],6 nM
same,IC50,MCF7 [2],27 nM
same,IC50,Estrogen receptor [3],0.98 nM
CC/C(=C(/c1ccc(/C=C/C(=O)O)cc1)c1cc2ccccc2[nH]1)c1ccc(Cl)cc1C(F)(F)F,inhibition in vivo at 20 mg/kg,MCF7 [4],117%
same,Vd,[5],1.6 L/kg
same,inhibition,MCF7 [6],Active
same,clearance,[7],6.86 mL/min/kg
same,IC50,Estrogen receptor [1],2 nM
same,IC50,MCF7 [2],4 nM
same,AUC(0-t),[8],6.36 µM·h
same,bioavailability,[9],52.4%
same,IC50,[10],> 30000 nM
same,IC50,Estrogen receptor [3],0.76 nM
CC/C(=C(/c1ccc(/C=C/C(=O)O)cc1)c1cc2ccccc2[nH]1)c1cccc(F)c1C#N,IC50,Estrogen receptor [1],49 nM
same,IC50,MCF7 [2],40 nM
same,IC50,Estrogen receptor [3],0.17 nM
CC/C(=C(/c1ccc(/C=C/C(=O)O)cc1)c1cc2ccccc2[nH]1)c1ccc(Cl)c(C(F)(F)F)c1,IC50,Estrogen receptor [1],2450 nM
same,IC50,MCF7 [2],2200 nM
CC/C(=C(/c1ccc(/C=C/C(=O)O)cc1)c1cc2ccccc2[nH]1)c1ccccc1OC(F)(F)F,IC50,Estrogen receptor [1],93 nM
same,IC50,MCF7 [2],206 nM
same,IC50,Estrogen receptor [3],2.41 nM

# Source: ChEMBL document CHEMBL4699562, “Design, syntheses and evaluations of novel indole derivatives as orally selective estrogen receptor degraders (SERD)” (Bioorg Med Chem Lett, 2020)
